Data from ChEMBL document CHEMBL4184323, “Structure-Guided Design, Synthesis, and Characterization of Next-Generation Meprin β Inhibitors” (J Med Chem, 2018).

How the values were obtained:
[1] = molecular target: T1, meprin alpha (Homo sapiens, UniProt Q16819); assay: Inhibition of recombinant human meprin alpha expressed in insect cells assessed as residual activity using Abz-YVADAPK(Dnp)G-OH as substrate at 200 uM by fluorescence assay relative to control; conditions: probe Abz-YVADAPK(Dnp)G-OH, read-out: Activity
T1 sequence (Q16819 whole entry): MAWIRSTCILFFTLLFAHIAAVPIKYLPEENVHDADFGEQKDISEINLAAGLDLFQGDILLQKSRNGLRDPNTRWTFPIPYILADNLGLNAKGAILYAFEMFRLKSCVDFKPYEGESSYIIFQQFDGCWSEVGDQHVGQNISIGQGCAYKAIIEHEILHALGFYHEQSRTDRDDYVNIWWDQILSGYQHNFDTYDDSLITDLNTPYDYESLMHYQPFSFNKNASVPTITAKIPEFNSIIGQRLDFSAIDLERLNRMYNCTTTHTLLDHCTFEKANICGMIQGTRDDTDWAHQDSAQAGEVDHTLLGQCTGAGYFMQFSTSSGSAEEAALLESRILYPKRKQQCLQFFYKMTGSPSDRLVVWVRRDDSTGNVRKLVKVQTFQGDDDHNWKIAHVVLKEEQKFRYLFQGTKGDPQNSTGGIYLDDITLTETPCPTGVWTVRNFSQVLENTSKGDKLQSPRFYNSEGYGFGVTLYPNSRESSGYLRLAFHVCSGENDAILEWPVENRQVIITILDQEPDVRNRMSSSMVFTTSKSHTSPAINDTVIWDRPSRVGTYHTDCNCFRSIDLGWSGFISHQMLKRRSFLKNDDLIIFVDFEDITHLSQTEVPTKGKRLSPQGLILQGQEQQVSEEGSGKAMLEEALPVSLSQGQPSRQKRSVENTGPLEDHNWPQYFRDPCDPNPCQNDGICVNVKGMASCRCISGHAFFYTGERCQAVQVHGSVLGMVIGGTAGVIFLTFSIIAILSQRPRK

[2] = Volume of distribution at steady state in Sprague-Dawley rat at 6 mg/kg, iv by LC-MS analysis; format: ADME, organism-based; conditions: in vivo, read-out: Vdss
[3] = molecular target: MMP2 (Homo sapiens, UniProt P08253); assay: Inhibition of human MMP2 assessed as residual activity using Mca-PLGL-(DapDnp)-AR-NH2 as substrate at 200 uM by fluorescence assay relative to control; conditions: human MMP2 enzyme, probe Mca-PLGL-(DapDnp)-AR-NH2, read-out: Activity
[4] = molecular target: CYP2C9 (Homo sapiens, UniProt P11712); assay: Inhibition of recombinant human CYP2C9 expressed in baculosomes assessed as residual activity at 25 uM using BOMCC substrate by fluorescence assay relative to control; format: ADME; conditions: probe BOMCC, read-out: Activity
[5] = organism: Homo sapiens; assay: Selectivity ratio of IC50 for recombinant human meprin alpha expressed in insect cells to IC50 for recombinant human meprin beta expressed in yeast
[6] = Clearance in Sprague-Dawley rat at 6 mg/kg, iv by LC-MS analysis; format: ADME, organism-based; conditions: in vivo
[7] = Tmax in Sprague-Dawley rat at 5 mg/kg, po by LC-MS analysis; format: ADME, organism-based; conditions: in vivo
[8] = molecular target: CYP3A4 (Homo sapiens, UniProt P08684); assay: Inhibition of recombinant human CYP3A4 expressed in baculosomes assessed as residual activity at 25 uM using BOMCC substrate by fluorescence assay relative to control; format: ADME; conditions: probe BOMCC, read-out: Activity
[9] = tested on: HepG2; assay: Cytotoxicity in human HepG2 cells assessed as cell viability at 100 uM after 24 hrs by CytoTox-ONE-based assay relative to control; format: functional; conditions: HepG2, 24 h, read-out: Activity
[10] = tested on: Rattus norvegicus; assay: Volume of distribution in Sprague-Dawley rat at 5 mg/kg, po by LC-MS analysis; format: ADME, organism-based; conditions: in vivo

CYP3A4, sequence (P08684 whole entry): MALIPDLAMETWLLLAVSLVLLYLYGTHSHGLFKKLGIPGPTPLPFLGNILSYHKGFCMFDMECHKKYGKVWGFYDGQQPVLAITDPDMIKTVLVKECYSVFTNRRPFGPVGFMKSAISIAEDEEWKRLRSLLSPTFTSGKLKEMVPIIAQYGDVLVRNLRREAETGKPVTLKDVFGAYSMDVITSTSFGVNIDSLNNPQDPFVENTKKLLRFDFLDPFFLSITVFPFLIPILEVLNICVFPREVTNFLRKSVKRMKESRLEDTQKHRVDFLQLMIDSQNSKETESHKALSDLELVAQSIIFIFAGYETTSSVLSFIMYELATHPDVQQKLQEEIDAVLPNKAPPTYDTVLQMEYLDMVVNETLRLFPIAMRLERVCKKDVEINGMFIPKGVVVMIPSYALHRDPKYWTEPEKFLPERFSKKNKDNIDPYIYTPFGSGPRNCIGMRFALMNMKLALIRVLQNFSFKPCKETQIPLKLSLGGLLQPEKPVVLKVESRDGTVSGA
CYP2C9, sequence (P11712 whole entry): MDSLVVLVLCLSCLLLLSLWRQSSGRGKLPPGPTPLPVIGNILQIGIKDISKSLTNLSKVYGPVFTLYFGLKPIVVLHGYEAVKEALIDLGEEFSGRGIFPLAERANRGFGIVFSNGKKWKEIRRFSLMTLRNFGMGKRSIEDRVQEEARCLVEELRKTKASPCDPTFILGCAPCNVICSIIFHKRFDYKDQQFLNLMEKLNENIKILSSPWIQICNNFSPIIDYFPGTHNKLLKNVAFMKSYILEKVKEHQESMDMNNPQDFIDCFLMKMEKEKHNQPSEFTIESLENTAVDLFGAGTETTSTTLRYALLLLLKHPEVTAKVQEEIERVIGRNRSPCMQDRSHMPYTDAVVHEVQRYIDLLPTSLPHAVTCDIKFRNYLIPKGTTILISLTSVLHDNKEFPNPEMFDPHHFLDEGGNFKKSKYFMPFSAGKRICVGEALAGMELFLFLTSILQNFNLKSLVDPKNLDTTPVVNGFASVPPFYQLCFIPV
MMP2, sequence (P08253 whole entry): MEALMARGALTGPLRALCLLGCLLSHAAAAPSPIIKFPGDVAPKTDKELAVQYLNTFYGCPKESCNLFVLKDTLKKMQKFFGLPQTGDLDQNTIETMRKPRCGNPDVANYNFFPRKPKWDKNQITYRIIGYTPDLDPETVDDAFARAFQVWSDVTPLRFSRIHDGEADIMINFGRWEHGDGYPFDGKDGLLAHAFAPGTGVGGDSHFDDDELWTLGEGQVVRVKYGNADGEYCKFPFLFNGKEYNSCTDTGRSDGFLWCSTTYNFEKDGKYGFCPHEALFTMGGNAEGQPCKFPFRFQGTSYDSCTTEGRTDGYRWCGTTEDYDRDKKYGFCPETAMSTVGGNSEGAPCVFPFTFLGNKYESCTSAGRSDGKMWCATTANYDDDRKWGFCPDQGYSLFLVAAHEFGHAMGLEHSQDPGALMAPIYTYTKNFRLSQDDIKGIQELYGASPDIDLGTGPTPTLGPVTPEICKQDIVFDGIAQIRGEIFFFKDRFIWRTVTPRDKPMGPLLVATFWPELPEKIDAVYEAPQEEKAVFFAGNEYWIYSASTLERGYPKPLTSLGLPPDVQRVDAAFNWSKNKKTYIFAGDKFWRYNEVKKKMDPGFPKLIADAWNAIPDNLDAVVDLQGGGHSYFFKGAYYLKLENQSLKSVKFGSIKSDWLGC

O=C(CN(Cc1cccc(C(=O)O)c1)Cc1cccc(C(=O)O)c1)NO
activity at 200 µM [1]: < 10%
Vd [2]: 0.42 L/kg
activity at 200 µM [3]: 64%
activity at 25 µM [4]: 101%
Ratio IC50 [5]: 300
clearance [6]: 29.7 mL/min/kg
Tmax [7]: 10.2 min
activity at 25 µM [8]: 86%
viability at 100 µM [9]: 97%
Vd [10]: 0.073 L
